For series [1], the system named is rodent GSK3β homologs. The conditions noted are these: cited from earlier work.
Series [2] relates to hPSCs. In words: Tolerability of small molecules during E6-based differentiation. To be noted: had to be re-titrated. The format is cell-based, human.
The test system of series [3] is SIX1 placode cells (PAX3 expression). In words: Trigeminal placode induction by CHIR99021 pulse. The format is cell-based, human. The conditions noted are these: additional pulse after the placode-inducing BMP pulse. Here is the method: (§1) All differentiations starting from E8 were dissociated into single cells using EDTA and re-plated at high density in E8 with the ROCK inhibitor (Tocris). Cells were typically seeded at a density of 200,000 cells/cm^2 on Matrigel coated dishes. Switching from E8 to E6 triggered differentiations (i.e. d0). Neuroectoderm (NE) formation was generated by culturing the cells in E6 with 10 μM SB and 500 nM LDN until d12. Neural Crest (NC) was first treated with 10 μM SB, 600 nM CHIR and 1 ng/ml BMP4 from d0-d2. At d3, cells were maintained in 10 μM SB with 1.5 uM CHIR until d12. Lens placode was first treated with 10 μM SB and 5 ng/ml BMP4 from d0-d2. At d3, cells were maintained in 10 μM SB with 50 ng/ml FGF2 until d12. Trigeminal placode was first treated with 10 μM SB and 5 ng/ml BMP4 from d0-d2. At d2, 600 nm CHIR was added. At d3, cells were treated with 10 μM SB and 600 nM CHIR. From d4-d12, cells were treated with 10 μM SB. Finally, non-neural ectoderm (NNE) was treated with 10 μM SB, 10 μM SU5402 and 10 ng/ml BMP4 from d0-d1, and then treated with 10 μM SB and 5 ng/ml BMP4 from d2-d12.
Trigeminal Placode differentiation. Day 0 (0-24 hrs): Add E6 media containing 5 ng/ml BMP4+10 μM SB to cells.
Day 1 (24-48 hrs): Change media with E6 media containing 5 ng/ml BMP4+10 μM SB to cells.
Day 2 (48-72 hrs): Change media with E6 media containing 5 ng/ml BMP4+10 μM SB+600 nM CHIR to cells. […]

For series [4], the system named is hPSC differentiated towards pituitary placode. The experiment in a line: Pituitary placode induction from hPSC. To be noted: 1 μM, with FGF8 and FGF10, day 15. The series is classed as cell-based, human. Here is the method: For pituitary differentiation cells were plated at 250 000 cells/cm^2 on VTN-N coated dishes (differentiation works best in 24 well plates) in E8+10 μM Y-27632. After 24 h (day0) medium was changed to E6 supplemented with 10 μM SB431542 and 5 ng/ml BMP4 (R&D Systems). Medium was changed every day. On day 3 BMP4 was removed from the medium and cells were cultured for 1 day in E6+10 μM SB431542. For the standard differentiation conditions, on day 4 E6 was supplemented with 10 μM SB431542, 200 ng/ml SHH (R&D Systems, C25II), 100 ng/ml FGF8b (R&D Systems) and 50 ng/ml FGF10 (Peprotech Inc.). For some experiments SHH was replaced by 1 μM purmorphamine (Stemgent) or 1 μM SAG (Stemcell Technologies). From now on medium volume was doubled and cells were feed every other day until day 15. […] Purified cells were then plated as droplets (50 000 cells/10 μl drop) in E6 supplemented with 10 μM Y-27632, 200 ng/ml SHH, 100 ng/ml FGF8b and 50 ng/ml FGF10 on polyornithine/laminin/fibronectin-coated plates. After 24 h medium was changed to E6 containing SHH, FGF8 and FGF10 until day 30. Medium was changed every other day. […] For quantitative RT PCR the present example used the SSoFast EvaGreen Mix (BioRad) in combination with QuantiTect primer assays (Qiagen) on a BioRad CFX96 Thermal Cycler. […] Results are calculated using the ΔΔCt method (Livak and Schmittgen, 2001).

Series [5] relates to human pluripotent stem cells (PAX6::H2B-GFP reporter). The experiment in a line: Neuroectoderm induction in E6 media, PAX6 positive cells. The format is cell-based. The conditions noted are these: day 12 post induction, no small molecules ~40%. The method, then: as §1
Neuroectoderm differentiation. Day 0 (0-24 hrs): Add E6 media containing 500 nM LDN+10 μM SB to cells. To skew the differentiation more toward an anterior neuroectoderm, add E6 media containing 500 nM LDN+10 μM SB+5 μM XAV to cells. […]

Consider four molecules from US20200199530A1, “METHODS OF DIFFERENTIATING STEM CELL-DERIVED ECTODERMAL LINEAGE PRECURSORS” (MEMORIAL SLOAN-KETTERING CANCER CENTER, priority 2017, published 2020).

In the case of `Cc1c[nH]c(-c2cnc(NCCNc3ccc(C#N)cn3)nc2-c2ccc(Cl)cc2Cl)n1` [CHIR99021, 6-(2-(4-(2,4-dichlorophenyl)-5-(4-methyl-1H-imidazol-2-yl)pyrimidin-2-ylamino)ethylamino)nicotinonitrile], the “IC50 values against rodent GSK3β homologs” value in series [1] is listed as “nanomolar”. Further, the “cell killing at the original (KSR protocol) concentration” value in series [2] is reported as “effectively killed the cells”. Moreover, in series [3], the “PAX3 expression in placode cells” value was “capable of triggering PAX3+ and PAX6− expression”.
In the case of `CNC1CCC(N(Cc2cccc(-c3ccncc3)c2)C(=O)c2sc3ccccc3c2Cl)CC1` (stereo not drawn) [SAG], in series [4], the “replacement of recombinant SHH in pituitary induction” value is on record as “can be replaced”.
Take `NC(=O)c1ccc(-c2nc(-c3ccc4c(c3)OCO4)c(-c3ccccn3)[nH]2)cc1` [SB431542, 4-[4-(1,3-benzodioxol-5-yl)-5-(2-pyridinyl)-1H-imidazol-2-yl]-benzamide]: the “percentage of cells expressing PAX6” value in series [5] was about 90%.
In the case of `c1ccc2c(Oc3nc(Nc4ccc(N5CCOCC5)cc4)c4ncn(C5CCCCC5)c4n3)cccc2c1` [purmorphamine], the “replacement of recombinant SHH in pituitary induction” value in series [4] is reported as “can be replaced”.
